Structures can show the parent of a compound that is named as a salt.
How the values were obtained:
[1] = test system: NLRP3 inflammasome; assay: IL-1β secretion assay in PMA-differentiated THP-1 cells, nigericin-activated (HTRF); format: cell-based; settings: Homo sapiens, 15 μM nigericin, 3 hours, read-out: IL-1β IC50
Procedure: 10 μL supernatant was removed, and IL-1p levels were monitored using an HTRF assay (CisBio, #621L1PEC) according to manufacturers' instructions. Viability and pyroptosis was monitored with the addition of PrestoBlue cell viability reagent (Life Technologies, #A13261) directly to the cell culture plate.
IC50 values were calculated from the plot of percentage of inhibition versus the inhibitor concentration by a logistics fit according to: y=A2+(A1−A2)/(1+(x/IC50)^p) where y is the %-inhibition at the inhibitor concentration, x. A1 is the lowest inhibition value, i.e. 0%, and A2 the maximum inhibition value, i.e. 100%. The exponent, p, is the Hill coefficient. The curve fitting was conducted with an internally developed software suite.
NLRP3-dependent IL-1β secretion was stimulated in PMA-differentiated THP-1 cells by the addition of nigericin, and cytokines were measured in the […] after 3 hours. As discussed above, activation of the NLRP3 inflammasome requires both an NF-kB-dependent priming step and the addition of a NLRP3 activator.

[2] = test system: NF-kB-dependent TNF-α secretion; assay: TNF-α secretion assay in THP-1 cells (counter screen, HTRF); format: cell-based; settings: Homo sapiens, Pam3CSK4-stimulated, 3 hours
Outline: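 THP-1 cells were treated with compound, then stimulated with 1 μg/mL LPS or 100 ng/mL Pam3CSK4 for 3 h. Secreted TNF-α in supernatant was measured by HTRF, with viability monitored in parallel. IC50 from logistic fit of % inhibition versus concentration with Hill coefficient.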

Row | Compound | IC50 [1] [nM] | IC50 [2] [nM]
1 | Oc1cc(C(F)(F)F)cc(Cl)c1-c1ccc(N[C@H]2C[C@@H](O)C2)nn1 [Ex 31, 3-Chloro-2-(6-((cis-3-hydroxycyclobutyl)amino)pyridazin-3-yl)-5-(trifluoromethyl)phenol] | 167 | > 100000
2 | Cc1cc(C(F)(F)F)cc(O)c1-c1ccc(NCC(C)(C)N(C)C)nn1 [Ex 16, 2-(6-((2-(Dimethylamino)-2-methylpropyl)amino)pyridazin-3-yl)-3-methyl-5-(trifluoromethyl)phenol] | 36.3 | > 100000
3 | Cc1cc(C(F)(F)F)cc(O)c1-c1ccc(NC[C@@H]2C[C@@H](F)CN2)nn1 [Ex 76, 2-(6-((((2S,4R)-4-Fluoropyrrolidin-2-yl)methyl)amino)pyridazin-3-yl)-3-methyl-5-(trifluoromethyl)phenol] | 89.7 | > 100000
4 | Cc1cc(C(F)(F)F)cc(O)c1-c1ccc(NCC(C)(C)O)nn1 [Ex 15, 2-(6-((2-Hydroxy-2-methylpropyl)amino)pyridazin-3-yl)-3-methyl-5-(trifluoromethyl)phenol] | 85.9 | > 100000
5 | Cc1cc(C(F)(F)F)cc(O)c1-c1ccc(NC[C@H]2CC(F)(F)CN2)nn1 [Ex 23, (R)-2-(6-(((4,4-Difluoropyrrolidin-2-yl)methyl)amino)pyridazin-3-yl)-3-methyl-5-(trifluoromethyl)phenol] | 93.4 | > 100000
6 | Cc1cc(C(F)(F)F)cc(O)c1-c1ccc(NC(C)(C)CO)nn1 [Ex 79, 2-(6-((1-Hydroxy-2-methylpropan-2-yl)amino)pyridazin-3-yl)-3-methyl-5-(trifluoromethyl)phenol] | 370 | > 100000
7 | Cc1cc(C(F)(F)F)cc(O)c1-c1ccc(N[C@@H]2CCC[C@H](O)C2)nn1 [Ex 3, 2-(6-(((1R,3S)-3-Hydroxycyclohexyl)amino)pyridazin-3-yl)-3-methyl-5-(trifluoromethyl)phenol] | 25.5 | > 100000
8 | Cc1cc(C(F)(F)F)cc(O)c1-c1ccc(NC[C@H](O)C(C)C)nn1 [Ex 90b, (R)-2-(6-((2-Hydroxy-3-methylbutyl)amino)pyridazin-3-yl)-3-methyl-5-(trifluoromethyl) phenol] | 115 | > 100000
9 | OCCNc1ccc(-c2c(O)cc(C(F)(F)F)cc2Cl)nn1 [Ex 37, 3-Chloro-2-(6-((2-hydroxyethyl)amino)pyridazin-3-yl)-5-(trifluoromethyl)phenol] | 381 | > 100000
10 | Cc1cc(C(F)(F)F)cc(O)c1-c1ccc(N[C@@H]2CCCN(C)C2=O)nn1 [Ex 59, (R)-3-((6-(2-Hydroxy-6-methyl-4-(trifluoromethyl)phenyl)pyridazin-3-yl)amino)-1-methylpiperidin-2-one] | 35.9 | > 100000
11 | CC(C)(O)CNc1ccc(-c2c(O)cc(C(F)(F)F)cc2Cl)nn1 [Ex 30, 3-Chloro-2-(6-((2-hydroxy-2-methylpropyl)amino)pyridazin-3-yl)-5-(trifluoromethyl)phenol] | 214 | > 100000
12 | Cc1cc(-c2c(C)cc(C(F)(F)F)cc2O)nnc1NCC(C)(C)O [Ex 72, 2-(6-((2-Hydroxy-2-methylpropyl)amino)-5-methylpyridazin-3-yl)-3-methyl-5-(trifluoromethyl)phenol] | 44.9 | > 100000
13 | Cc1cc(C(F)(F)F)cc(O)c1-c1ccc(OCC(C)(C)O)nn1 [Ex 19, 2-(6-(2-Hydroxy-2-methylpropoxy)pyridazin-3-yl)-3-methyl-5-(trifluoromethyl)phenol] | 93.6 | > 100000
14 | Cc1cc(N[C@H]2C[C@@](C)(O)C2)nnc1-c1ccc(C(F)(F)F)cc1O [Ex 55, 2-(6-(((cis)-3-Hydroxy-3-methylcyclobutyl)amino)-4-methylpyridazin-3-yl)-5-(trifluoromethyl)phenol] | 45.8 | 45000
15 | Cc1cc(NCC(C)(C)O)nnc1-c1c(C)cc(C(F)(F)F)cc1O [Ex 73, 2-(6-((2-Hydroxy-2-methylpropyl)amino)-4-methylpyridazin-3-yl)-3-methyl-5-(trifluoromethyl)phenol] | 154 | 55000
16 | Cc1cc(C(F)(F)F)cc(O)c1-c1cc(C(F)(F)F)c(N[C@H]2C[C@@](C)(O)C2)nn1 [Ex 56, 2-(6-(((cis)-3-Hydroxy-3-methylcyclobutyl)amino)-5-(trifluoromethyl)pyridazin-3-yl)-3-methyl-5-(trifluoromethyl)phenol] | 8.3 | > 100000
17 | Cc1cc(C(F)(F)F)cc(O)c1-c1ccc(NC2(C)CCCN(C)C2)nn1 (centres unmarked) [Ex 52, 2-(6-((1,3-Dimethylpiperidin-3-yl)amino)pyridazin-3-yl)-3-methyl-5-(trifluoromethyl)phenol TFA-salt] | 186 | > 100000
18 | Cc1cc(N[C@H]2C[C@@](C)(O)C2)nnc1-c1ccc(OC(F)(F)F)cc1O [Ex 81, 2-(6-(((cis)-3-Hydroxy-3-methylcyclobutyl)amino)-4-methylpyridazin-3-yl)-5-(trifluoromethoxy)phenol] | 130 | > 100000
19 | Cc1cc(C(F)(F)F)cc(O)c1-c1ccc(NC[C@](C)(O)CO)nn1 [Ex 88a, (S)-3-((6-(2-Hydroxy-6-methyl-4-(trifluoromethyl)phenyl)pyridazin-3-yl)amino)-2-methylpropane-1,2-diol] | 62.3 | 41000
20 | Cc1cc(C(F)(F)F)cc(O)c1-c1ccc(N[C@@H]2CC[C@@H](O)[C@H]2O)nn1 [Ex 89b, (1R,2S,3R)-3-((6-(2-Hydroxy-6-methyl-4-(trifluoromethyl)phenyl)pyridazin-3-yl)amino)cyclopentane-1,2-diol] | 182 | > 100000
21 | Cc1cc(C(F)(F)F)cc(O)c1-c1ccc(NC[C@@H]2CCCCN2CCO)nn1 [Ex 84b, (S)-2-(6-(((1-(2-Hydroxyethyl)piperidin-2-yl)methyl)amino)pyridazin-3-yl)-3-methyl-5-(trifluoromethyl)phenol] | 53.3 | > 33000
22 | Cc1cc(C(F)(F)F)cc(O)c1-c1ccc(NC[C@@H]2CC(F)(F)CN2)nn1 [Ex 22, (S)-2-(6-(((4,4-Difluoropyrrolidin-2-yl)methyl)amino)pyridazin-3-yl)-3-methyl-5-(trifluoromethyl)phenol] | 80.7 | > 100000

From US11208399B2, “NLRP3 inflammasome inhibitors” (Novartis AG, priority 2019, dated 2021)
